According to ChEMBL document CHEMBL3817824, “Synthesis and biological evaluation of new [1,2,4]triazolo[4,3-a]pyridine derivatives as potential c-Met inhibitors” (Bioorg Med Chem, 2016):

Legend:
[1] = Cytotoxicity against human MKN45 cells assessed as reduction in cell survival incubated for 3 days by cell titre-glo assay; format: functional, cell-based; conditions: MKN-45, 72 h
NCI-H1993 = test: Cytotoxicity against human NCI-H1993 cells assessed as reduction in cell survival incubated for 3 days by cell titre-glo assay; format: functional, cell-based; conditions: NCI-H1993, 72 h
NCI-N87 = test: Cytotoxicity against human NCI-N87 cells assessed as reduction in cell survival incubated for 3 days by cell titre-glo assay; format: functional, cell-based; conditions: NCI-N87, 72 h
A549 = test: Cytotoxicity against human A549 cells assessed as reduction in cell survival incubated for 3 days by cell titre-glo assay; format: functional, cell-based; conditions: A549, 72 h
[2] = biological target: RAC-alpha serine/threonine-protein kinase (Homo sapiens, UniProt P31749); test: Inhibition of AKT1 (unknown origin) incubated for 1 hr by spectrophotometric analysis
[3] = biological target: Tyrosine-protein kinase ABL2 (Homo sapiens, UniProt P42684); test: Inhibition of ARG (unknown origin) incubated for 1 hr by spectrophotometric analysis
Tyrosine-protein kinase ABL2, sequence (P42684 whole entry): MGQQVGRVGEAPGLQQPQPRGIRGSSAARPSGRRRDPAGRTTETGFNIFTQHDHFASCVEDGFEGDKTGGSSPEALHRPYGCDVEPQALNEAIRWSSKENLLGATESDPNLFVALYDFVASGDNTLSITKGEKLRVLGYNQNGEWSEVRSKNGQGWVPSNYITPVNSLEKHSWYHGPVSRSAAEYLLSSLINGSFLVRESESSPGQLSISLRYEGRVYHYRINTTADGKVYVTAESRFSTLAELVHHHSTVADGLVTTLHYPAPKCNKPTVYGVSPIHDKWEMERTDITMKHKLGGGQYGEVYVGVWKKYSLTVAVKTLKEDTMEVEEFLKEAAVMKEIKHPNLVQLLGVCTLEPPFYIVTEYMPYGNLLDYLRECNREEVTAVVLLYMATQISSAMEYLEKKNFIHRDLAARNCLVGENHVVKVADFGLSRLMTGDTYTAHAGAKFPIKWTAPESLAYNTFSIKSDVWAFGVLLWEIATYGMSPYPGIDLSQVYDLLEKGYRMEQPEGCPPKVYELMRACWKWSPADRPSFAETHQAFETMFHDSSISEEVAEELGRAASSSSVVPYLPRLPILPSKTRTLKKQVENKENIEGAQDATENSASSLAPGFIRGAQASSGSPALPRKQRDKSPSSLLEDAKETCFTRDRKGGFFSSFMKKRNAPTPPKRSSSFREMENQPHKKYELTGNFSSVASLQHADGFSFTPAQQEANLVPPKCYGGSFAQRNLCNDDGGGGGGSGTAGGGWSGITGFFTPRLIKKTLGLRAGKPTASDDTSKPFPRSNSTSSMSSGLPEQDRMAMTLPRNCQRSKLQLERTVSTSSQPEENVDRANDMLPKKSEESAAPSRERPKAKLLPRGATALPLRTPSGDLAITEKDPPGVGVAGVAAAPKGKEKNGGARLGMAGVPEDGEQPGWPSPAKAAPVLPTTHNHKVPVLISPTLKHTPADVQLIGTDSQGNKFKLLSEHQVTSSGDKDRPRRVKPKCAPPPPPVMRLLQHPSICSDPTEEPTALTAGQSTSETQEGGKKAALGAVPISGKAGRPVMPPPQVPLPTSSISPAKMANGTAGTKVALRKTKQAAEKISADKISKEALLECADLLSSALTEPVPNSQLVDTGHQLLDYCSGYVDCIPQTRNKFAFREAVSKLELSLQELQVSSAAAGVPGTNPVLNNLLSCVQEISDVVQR

[4] = biological target: Tyrosine-protein kinase receptor UFO (Homo sapiens, UniProt P30530); test: Inhibition of AXL (unknown origin) incubated for 1 hr by spectrophotometric analysis
[5] = biological target: Tyrosine-protein kinase BTK (Homo sapiens, UniProt Q06187); test: Inhibition of BTK (unknown origin) incubated for 1 hr by spectrophotometric analysis
Ephrin type-A receptor 2 = Ephrin type-A receptor 2 (Homo sapiens, UniProt P29317); test: Inhibition of ECK (unknown origin) incubated for 1 hr by spectrophotometric analysis
[6] = biological target: Epidermal growth factor receptor (Homo sapiens, UniProt P00533); test: Inhibition of EGFR (unknown origin) incubated for 1 hr by spectrophotometric analysis
Epidermal growth factor receptor (Homo sapiens, UniProt P00533), sequence (P00533 whole entry): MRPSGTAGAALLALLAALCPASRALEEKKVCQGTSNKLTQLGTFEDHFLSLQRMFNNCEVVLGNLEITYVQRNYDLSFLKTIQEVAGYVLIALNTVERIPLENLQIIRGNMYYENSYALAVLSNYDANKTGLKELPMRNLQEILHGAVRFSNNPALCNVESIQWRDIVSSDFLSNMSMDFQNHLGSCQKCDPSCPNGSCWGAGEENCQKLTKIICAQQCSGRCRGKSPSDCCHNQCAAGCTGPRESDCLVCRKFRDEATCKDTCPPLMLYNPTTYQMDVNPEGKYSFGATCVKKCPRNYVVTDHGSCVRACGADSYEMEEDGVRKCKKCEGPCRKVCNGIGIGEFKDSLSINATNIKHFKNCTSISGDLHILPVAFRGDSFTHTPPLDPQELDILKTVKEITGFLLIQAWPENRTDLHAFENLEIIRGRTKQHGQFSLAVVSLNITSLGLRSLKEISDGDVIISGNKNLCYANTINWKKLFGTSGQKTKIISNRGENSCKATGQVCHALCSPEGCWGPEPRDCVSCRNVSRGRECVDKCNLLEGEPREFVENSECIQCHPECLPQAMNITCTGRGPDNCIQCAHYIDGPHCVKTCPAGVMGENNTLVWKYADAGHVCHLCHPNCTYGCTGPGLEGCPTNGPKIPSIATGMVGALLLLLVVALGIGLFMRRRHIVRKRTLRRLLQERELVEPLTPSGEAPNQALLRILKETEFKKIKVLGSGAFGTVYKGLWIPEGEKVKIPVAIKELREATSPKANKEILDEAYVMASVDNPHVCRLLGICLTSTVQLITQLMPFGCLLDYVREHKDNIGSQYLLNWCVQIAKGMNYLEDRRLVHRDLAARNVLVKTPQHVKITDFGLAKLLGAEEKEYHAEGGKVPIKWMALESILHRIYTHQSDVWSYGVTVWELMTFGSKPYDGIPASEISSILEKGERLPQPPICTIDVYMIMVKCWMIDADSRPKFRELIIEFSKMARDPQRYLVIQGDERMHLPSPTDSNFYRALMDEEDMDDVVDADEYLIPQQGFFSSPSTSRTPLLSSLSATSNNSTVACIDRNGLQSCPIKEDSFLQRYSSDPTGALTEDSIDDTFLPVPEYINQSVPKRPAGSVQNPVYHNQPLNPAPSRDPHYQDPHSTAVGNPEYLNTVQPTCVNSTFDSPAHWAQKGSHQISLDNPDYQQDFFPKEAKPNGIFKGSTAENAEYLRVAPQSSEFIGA

[7] = biological target: Epidermal growth factor receptor (Homo sapiens, UniProt P00533, T790M); test: Inhibition of EGFR T790M mutant (unknown origin) incubated for 1 hr by spectrophotometric analysis; format: protein assay
[8] = biological target: Mitogen-activated protein kinase 1 (Homo sapiens, UniProt P28482); test: Inhibition of ERK2 (unknown origin) incubated for 1 hr by spectrophotometric analysis
[9] = biological target: Vascular endothelial growth factor receptor 1 (Homo sapiens, UniProt P17948); test: Inhibition of FLT1 (unknown origin) incubated for 1 hr by spectrophotometric analysis
[10] = biological target: Receptor-type tyrosine-protein kinase FLT3 (Homo sapiens, UniProt P36888); test: Inhibition of FLT3 (unknown origin) incubated for 1 hr by spectrophotometric analysis
[11] = biological target: Receptor tyrosine-protein kinase erbB-2 (Homo sapiens, UniProt P04626); test: Inhibition of HER2 (unknown origin) incubated for 1 hr by spectrophotometric analysis
Receptor tyrosine-protein kinase erbB-2, sequence (P04626 whole entry): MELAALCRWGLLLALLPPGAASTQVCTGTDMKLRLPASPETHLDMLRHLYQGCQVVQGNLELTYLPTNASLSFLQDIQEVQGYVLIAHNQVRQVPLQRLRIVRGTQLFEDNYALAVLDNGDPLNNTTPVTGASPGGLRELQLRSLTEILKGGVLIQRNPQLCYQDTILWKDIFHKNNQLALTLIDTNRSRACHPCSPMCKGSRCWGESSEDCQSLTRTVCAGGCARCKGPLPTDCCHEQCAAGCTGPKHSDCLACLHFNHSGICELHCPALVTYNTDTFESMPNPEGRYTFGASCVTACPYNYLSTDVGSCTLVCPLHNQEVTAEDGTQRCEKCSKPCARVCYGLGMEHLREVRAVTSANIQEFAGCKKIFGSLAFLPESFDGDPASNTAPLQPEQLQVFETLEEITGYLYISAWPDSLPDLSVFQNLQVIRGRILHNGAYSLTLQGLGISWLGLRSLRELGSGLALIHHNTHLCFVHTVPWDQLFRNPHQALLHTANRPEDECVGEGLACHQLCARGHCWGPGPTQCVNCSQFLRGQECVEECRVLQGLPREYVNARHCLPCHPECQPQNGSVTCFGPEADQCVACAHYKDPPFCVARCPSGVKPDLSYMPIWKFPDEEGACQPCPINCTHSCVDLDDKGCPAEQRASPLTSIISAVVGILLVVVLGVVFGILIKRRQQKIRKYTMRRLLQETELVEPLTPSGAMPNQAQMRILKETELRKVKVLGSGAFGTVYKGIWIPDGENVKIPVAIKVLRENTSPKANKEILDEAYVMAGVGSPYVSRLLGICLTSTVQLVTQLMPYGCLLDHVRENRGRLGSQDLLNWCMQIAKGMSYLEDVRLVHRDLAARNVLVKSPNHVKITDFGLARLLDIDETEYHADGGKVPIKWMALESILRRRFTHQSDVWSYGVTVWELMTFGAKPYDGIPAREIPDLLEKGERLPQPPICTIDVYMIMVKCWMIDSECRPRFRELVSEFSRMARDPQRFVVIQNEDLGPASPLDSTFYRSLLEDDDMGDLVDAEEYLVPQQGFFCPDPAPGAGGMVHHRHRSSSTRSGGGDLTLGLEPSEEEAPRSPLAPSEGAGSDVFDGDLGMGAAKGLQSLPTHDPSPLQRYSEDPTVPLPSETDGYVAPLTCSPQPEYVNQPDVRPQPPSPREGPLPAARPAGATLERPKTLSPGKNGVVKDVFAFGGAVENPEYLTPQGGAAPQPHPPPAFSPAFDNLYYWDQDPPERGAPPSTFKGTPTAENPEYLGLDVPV

[12] = biological target: Tyrosine-protein kinase JAK1 (Homo sapiens, UniProt P23458); test: Inhibition of JAK1 (unknown origin) incubated for 1 hr by spectrophotometric analysis
[13] = biological target: Vascular endothelial growth factor receptor 2 (Homo sapiens, UniProt P35968); test: Inhibition of KDR (unknown origin) incubated for 1 hr by spectrophotometric analysis
[14] = biological target: Tyrosine-protein kinase Lck (Homo sapiens, UniProt P06239); test: Inhibition of LCK (unknown origin) incubated for 1 hr by spectrophotometric analysis
[15] = biological target: Tyrosine-protein kinase Lyn (Homo sapiens, UniProt P07948); test: Inhibition of LYNA (unknown origin) incubated for 1 hr by spectrophotometric analysis
[16] = biological target: Muscle, skeletal receptor tyrosine-protein kinase (Homo sapiens, UniProt O15146); test: Inhibition of MUSK (unknown origin) incubated for 1 hr by spectrophotometric analysis
[17] = biological target: Mitogen-activated protein kinase 14 (Homo sapiens, UniProt Q16539); test: Inhibition of p38alpha (unknown origin) incubated for 1 hr by spectrophotometric analysis
[18] = biological target: Protein kinase C alpha type (Homo sapiens, UniProt P17252); test: Inhibition of PKCalpha (unknown origin) incubated for 1 hr by spectrophotometric analysis
[19] = biological target: Serine/threonine-protein kinase N1 (Homo sapiens, UniProt Q16512); test: Inhibition of PKN1 (unknown origin) incubated for 1 hr by spectrophotometric analysis
[20] = biological target: Macrophage-stimulating protein receptor (Homo sapiens, UniProt Q04912); test: Inhibition of RON (unknown origin) incubated for 1 hr by spectrophotometric analysis
[21] = biological target: Proto-oncogene tyrosine-protein kinase ROS (Homo sapiens, UniProt P08922); test: Inhibition of ROS (unknown origin) incubated for 1 hr by spectrophotometric analysis
[22] = biological target: Non-receptor tyrosine-protein kinase TYK2 (Homo sapiens, UniProt P29597); test: Inhibition of TYK2 (unknown origin) incubated for 1 hr by spectrophotometric analysis
Non-receptor tyrosine-protein kinase TYK2, sequence (P29597 whole entry): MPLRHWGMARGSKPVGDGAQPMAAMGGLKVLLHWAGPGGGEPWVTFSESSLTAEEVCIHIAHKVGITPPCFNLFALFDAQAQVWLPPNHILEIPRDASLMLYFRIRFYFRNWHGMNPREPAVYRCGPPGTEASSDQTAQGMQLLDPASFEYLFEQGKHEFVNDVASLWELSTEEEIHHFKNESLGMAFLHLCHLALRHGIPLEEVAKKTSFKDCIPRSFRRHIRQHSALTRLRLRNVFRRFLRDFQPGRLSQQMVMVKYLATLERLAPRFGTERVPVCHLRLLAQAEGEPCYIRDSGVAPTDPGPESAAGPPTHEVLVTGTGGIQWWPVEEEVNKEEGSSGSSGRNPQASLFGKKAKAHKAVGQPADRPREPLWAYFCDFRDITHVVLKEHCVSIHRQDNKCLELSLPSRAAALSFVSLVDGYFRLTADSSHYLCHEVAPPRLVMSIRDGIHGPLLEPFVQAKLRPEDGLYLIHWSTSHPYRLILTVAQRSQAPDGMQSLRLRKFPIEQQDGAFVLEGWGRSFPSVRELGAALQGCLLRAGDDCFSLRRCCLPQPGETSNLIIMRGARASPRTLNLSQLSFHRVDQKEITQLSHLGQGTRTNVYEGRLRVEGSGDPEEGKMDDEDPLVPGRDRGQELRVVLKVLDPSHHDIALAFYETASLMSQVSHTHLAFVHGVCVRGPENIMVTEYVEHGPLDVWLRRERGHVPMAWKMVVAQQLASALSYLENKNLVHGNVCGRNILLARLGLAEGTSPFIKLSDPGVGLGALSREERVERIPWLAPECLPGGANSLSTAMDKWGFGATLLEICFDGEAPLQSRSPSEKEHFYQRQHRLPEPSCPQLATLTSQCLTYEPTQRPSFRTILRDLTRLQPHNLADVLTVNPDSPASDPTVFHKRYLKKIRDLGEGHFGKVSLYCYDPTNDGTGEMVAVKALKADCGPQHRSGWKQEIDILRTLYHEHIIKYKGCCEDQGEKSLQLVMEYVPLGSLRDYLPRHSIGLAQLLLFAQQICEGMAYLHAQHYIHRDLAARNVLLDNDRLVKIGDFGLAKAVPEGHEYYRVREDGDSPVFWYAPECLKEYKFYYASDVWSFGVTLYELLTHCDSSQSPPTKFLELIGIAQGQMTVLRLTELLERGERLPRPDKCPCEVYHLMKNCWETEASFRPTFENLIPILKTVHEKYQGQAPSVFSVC

[23] = biological target: Tyrosine-protein kinase Yes (Homo sapiens, UniProt P07947); test: Inhibition of YES (unknown origin) incubated for 1 hr by spectrophotometric analysis

Structure (SMILES): CN1C(=O)COc2c1cnc1ccc(Sc3nnc4c(F)cc(-c5cnn(C)c5)cn34)cc21 [DALMELITINIB]
- IC50 [1]: 0.006 µM
- IC50 (NCI-H1993): 0.014 µM
- IC50 (NCI-N87): > 10 µM
- IC50 (A549): > 10 µM
- IC50 [2]: > 30 µM
- IC50 [3]: > 30 µM
- IC50 [4]: 8.69 µM
- IC50 [5]: > 30 µM
- IC50 (Ephrin type-A receptor 2): > 30 µM
- IC50 [6]: > 30 µM
- IC50 [7]: > 30 µM
- IC50 [8]: > 30 µM
- IC50 [9]: > 30 µM
- IC50 [10]: > 30 µM
- IC50 [11]: > 30 µM
- IC50 [12]: > 30 µM
- IC50 [13]: > 30 µM
- IC50 [14]: > 30 µM
- IC50 [15]: > 30 µM
- IC50 [16]: > 30 µM
- IC50 [17]: > 30 µM
- IC50 [18]: > 30 µM
- IC50 [19]: > 30 µM
- IC50 [20]: > 30 µM
- IC50 [21]: 2.83 µM
- IC50 [22]: > 30 µM
- IC50 [23]: > 30 µM
